Values of other authors, collected in patent US12551426B2, “Method for treating hair, comprising the application of a first agent (a) having a silane and a chromophoric compound, and a second agent (b) having a film-forming polymer” (Henkel AG & Co. KGaA, priority 2018, dated 2026).

Conditions: 25° C.

O=C([O-])C1=NN(c2ccc(S(=O)(=O)[O-])cc2)C(=O)C1N=Nc1ccc(S(=O)(=O)[O-])cc1.[Na+].[Na+].[Na+] (centres unmarked) [Acid Yellow 23, trisodium salt of 4,5-dihydro-5-oxo-1-(4-sulfophenyl)-4-((4-sulfophenyl)azo)-1H-pyrazole-3-carboxylic acid]
solubility in water (in words): highly soluble in water

Acid Yellow 3
solubility in water: 20 mg/mL

Nc1cc(S(=O)(=O)[O-])cc2cc(S(=O)(=O)[O-])c(N=Nc3ccccc3)c(O)c12.[Na+].[Na+] [Acid Red 33, diantrium salt of 5-amino-4-hydroxy-3-(phenylazo)-naphthalene-2,7-disulphonate]
solubility in water: 2.5 mg/mL

O=S(=O)([O-])c1ccc(N=Nc2c(O)ccc3ccccc23)cc1.[Na+] [Acid Orange 7, sodium salt of 4-[(2-hydroxy-1-naphthyl)azo]benzene sulphonate]
solubility in water: more than 7 g/L

O=C([O-])c1c(Cl)c(Cl)c(Cl)c(Cl)c1-c1c2c(Br)cc(=O)c(Br)c-2oc2c(Br)c(O)cc(Br)c12.O=C([O-])c1c(Cl)c(Cl)c(Cl)c(Cl)c1-c1c2c(Br)cc(=O)c(Br)c-2oc2c(Br)c(O)cc(Br)c12.[Na+].[Na+] [Acid Red 92, disodium salt of 3,4,5,6-tetrachloro-2-(1,4,5,8-tetrabromo-6-hydroxy-3-oxoxanthen-9-yl)benzoic acid]
solubility in water: greater than 10 g/L
